System: 217524-143-R1-J4-PDC spheroids with HUVEC/MSC, viability
Experiment: Anticancer human tumor 217524-143-R1-J4-PDC patient-derived pancreatic carcinoma cell line growth inhibition [CLK]
Settings: for IC50: curve of first compound; for viability, T/C: stronger effect = lower value; active means viability on the fitted dose curve at most 10% of control; inactive means the rest
Text: A high-throughput screen of multi-cell type tumor spheroids was designed to identify active combinations of […] and targeted small molecules. Complex spheroids include a stromal component modeled by human endothelial cells (HUVEC) and fibroblasts modeled by human mesenchymal stem cells (MSCs). The concentration ranges selected for each drug and investigational agent were based upon clinically achievable concentrations if the clinical Cmax of the agent was known.
Compounds. The drugs and investigational agents: cirtuvivint (SM08502; NSC835563), CC-671 (NSC850746), vemurafenib (NSC761431), tapotoclax (NSC804041), sotorasib (NSC818433), adagrasib (NSC831453), MRTX-1133 (NSC836407), BAY2416964 (NSC825713), copanlisib (NSC816437), inavolisib (NSC800729), abemaciclib (NSC768073), osimertinib (NSC779217), entinostat (NSC756642), eltanexor (KPT-8602, NSC794443), venetoclax (NSC766270), ceralasertib (NSC777638), bortezomib (NSC756655), olaparib (NSC753686), talazoparib (NSC767125), alisertib (NSC759677), peposertib (NSC802822), gemcitabine (NSC613327), 5-fluorouracil (NSC19893), SN-38 (NSC673596), oxaliplatin (NSC266046), paclitaxel (NSC125973), and doxorubicin (NSC123127), were obtained from the National Cancer Institute (NCI) Developmental Therapeutics Program Chemical Repository. The FDA-approved anticancer drug set is available from the Developmental Therapeutics Program at https://dtp.cancer.gov/organization/dscb/obtaining/available plates.htm. […] The stock solutions were prepared in dimethyl sulfoxide (DMSO, Sigma-Aldrich, St. Louis, MO, cat. D2650), except for the platinum complexes which were prepared in saline (Quality Biological, Gaithersburg, MD, cat. 114-055-101), at 800-fold the tested concentration and stored at -70 degrees C prior to their use. All drugs and investigational agents were tested over a range starting from a high concentration at or near the clinical Cmax and decreasing in half-log increments. If the clinical Cmax for an agent had not been determined, the highest concentration tested was 10 microM.
Cell Culture. All cells were maintained in an incubator at 37 degrees C and 5% CO2 with 95% humidity. The PDC lines were cultured according to standard operating procedures established by the NCI PDMR. Briefly, all PDCs were thawed and cultured in Matrigel-coated flasks prepared with a working solution of 1X Ham's F-12 nutrient mix, without supplementation (Invitrogen, Waltham, MA, cat. 11765054), 100 U/mL penicillin-streptomycin (Invitrogen, cat. 15140122), and 2.5% Matrigel (Corning Inc., Corning, NY, cat. 354248) for the first three passages. The 947758-054-R-J2-PDC line was cultured in 6B/Colon 1A media, which includes advanced DMEM/F-12 (Thermo Fisher Scientific, cat. 12634028), 10 mM HEPES (Thermo Fisher Scientific, cat. 15630080), 1X GlutaMAX supplement (Thermo Fisher Scientific, cat. 35050061), 0.1 mg/mL primocin (InvivoGen, cat. ant-pm-2), 10% defined fetal bovine serum, heat inactivated (HyClone Laboratories Inc., cat. SH30070.03HI), 1.25 mM N-Acetyl-L-cysteine (Sigma-Aldrich, cat. A9165), 10 mM nicotinamide (Sigma-Aldrich, cat. N0636), 1X B-27 supplement (Thermo Fisher Scientific, cat. 17504044), 1X N-2 supplement (Thermo Fisher Scientific, cat. 17502048), and 10 microM Y-27632 dihydrochloride (Tocris Bioscience, cat. 1254). The 876862-298-R-J1-PDC was cultured in 6E media, which includes all 6B/Colon 1A media components plus 50% L-WRN conditioned media (ATCC, cat. CRL-3276), 50 ng/mL recombinant human EGF recombinant protein (hEGF; Thermo Fisher Scientific, cat. PHG0311), 10 ng/mL recombinant human fibroblast growth factor 10 (hGFG-10; PeproTech, cat. 100-26), 1 ng/mL recombinant human fibroblast growth factor 2 (hFGF-2; PeproTech, cat. 100-18B), and 1 µM prostaglandin E2 (PGE2; Tocris, cat. 2296). The 227483-062-R1-J1-PDC line was cultured in Panc media, containing all 6E components except hFGF-2, with the addition of 500 nM SB-431542 (Selleckchem, cat. S1067) and 10 nM gastrin (Tocris, cat. 3006). […]
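Further: spheroids exposed to agents for seven days before reading.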

C=CC(=O)Nc1cc(Nc2nccc(-c3cn(C)c4ccccc34)n2)c(OC)cc1N(C)CCN(C)C + CN1CCN(c2cc(C(=O)Nc3cc4cc(-c5cnn(C)c5)ccc4cn3)ccn2)CC1
32.5 nM: IC50 (second compound 0.1 µM)
< 0.949 nM: IC50 (second compound 0.316 µM) | IC50 (second compound 1 µM) | IC50 (second compound 3.16 µM) | IC50 (second compound 10 µM)
inactive: viability, T/C (second compound 0.0316 µM, first compound 0.000949 µM) 79.8% | viability, T/C (second compound 0.0316 µM, first compound 0.003 µM) 63.2% | viability, T/C (second compound 0.0316 µM, first compound 0.00949 µM) 82.2% | viability, T/C (second compound 0.0316 µM, first compound 0.03 µM) 72.5% | viability, T/C (second compound 0.0316 µM, first compound 0.0949 µM) 56% | viability, T/C (second compound 0.0316 µM, first compound 0.3 µM) 32.5% | viability, T/C (second compound 0.1 µM, first compound 0.000949 µM) 57.5% | viability, T/C (second compound 0.1 µM, first compound 0.003 µM) 61.2% | viability, T/C (second compound 0.1 µM, first compound 0.00949 µM) 61.9% | viability, T/C (second compound 0.1 µM, first compound 0.03 µM) 47.2% | viability, T/C (second compound 0.1 µM, first compound 0.0949 µM) 39.5% | viability, T/C (second compound 0.1 µM, first compound 0.3 µM) 24.8% | viability, T/C (second compound 0.316 µM, first compound 0.000949 µM) 25.4% | viability, T/C (second compound 0.316 µM, first compound 0.003 µM) 27.2% | viability, T/C (second compound 0.316 µM, first compound 0.00949 µM) 22.9% | viability, T/C (second compound 0.316 µM, first compound 0.03 µM) 22.5% | viability, T/C (second compound 0.316 µM, first compound 0.0949 µM) 19% | viability, T/C (second compound 0.316 µM, first compound 0.3 µM) 12.6%
127 nM: IC50 (second compound 0.0316 µM)
active: viability, T/C (second compound 1 µM, first compound 0.000949 µM) 2.17% | viability, T/C (second compound 1 µM, first compound 0.003 µM) 2.28% | viability, T/C (second compound 1 µM, first compound 0.00949 µM) 1.87% | viability, T/C (second compound 1 µM, first compound 0.03 µM) 1.61% | viability, T/C (second compound 1 µM, first compound 0.0949 µM) 1.64% | viability, T/C (second compound 1 µM, first compound 0.3 µM) 0.9% | viability, T/C (second compound 3.16 µM, first compound 0.000949 µM) 1.11% | viability, T/C (second compound 3.16 µM, first compound 0.003 µM) 0.99% | viability, T/C (second compound 3.16 µM, first compound 0.00949 µM) 1.06% | viability, T/C (second compound 3.16 µM, first compound 0.03 µM) 0.81% | viability, T/C (second compound 3.16 µM, first compound 0.0949 µM) 1.04% | viability, T/C (second compound 3.16 µM, first compound 0.3 µM) 0.71% | viability, T/C (second compound 10 µM, first compound 0.000949 µM) 0.22% | viability, T/C (second compound 10 µM, first compound 0.003 µM) 0.25% | viability, T/C (second compound 10 µM, first compound 0.00949 µM) 0.25% | viability, T/C (second compound 10 µM, first compound 0.03 µM) 0.26% | viability, T/C (second compound 10 µM, first compound 0.0949 µM) 0.27% | viability, T/C (second compound 10 µM, first compound 0.3 µM) 0.25%

— PubChem BioAssay AID2060624 (Molecular Pharmacology Branch, DTP, NCI, 2025)
